system: HIV-1 protease (Human immunodeficiency virus 1); test: Inhibition of wild type HIV1 protease expressed in Escherichia coli by fluorometric assay

| Compound | IC50 [µM] |
| --- | --- |
| CC(C)CN(C[C@@H](O)[C@H](Cc1ccccc1)NC(=O)O[C@H]1CN[C@H](C(N)=O)C1)S(=O)(=O)c1ccc(N)cc1 | 0.0166 |
| CC(C)CN(C[C@@H](O)[C@H](Cc1ccccc1)NC(=O)O[C@H]1CN[C@H](C(=O)NC(C)(C)C)C1)S(=O)(=O)c1ccc(N)cc1 | 10.1 |
| CC(C)CN(C[C@@H](O)[C@H](Cc1ccccc1)NC(=O)O[C@H]1CN[C@H](C(=O)Nc2ccccc2)C1)S(=O)(=O)c1ccc(N)cc1 | 14.8 |
| COc1ccc(NC(=O)[C@@H]2C[C@@H](OC(=O)N[C@@H](Cc3ccccc3)[C@H](O)CN(CC(C)C)S(=O)(=O)c3ccc(N)cc3)CN2)cc1 | 0.0154 |
| Cc1ccc(NC(=O)[C@@H]2C[C@@H](OC(=O)N[C@@H](Cc3ccccc3)[C@H](O)CN(CC(C)C)S(=O)(=O)c3ccc(N)cc3)CN2)cc1 | 0.139 |
| COc1ccccc1NC(=O)[C@@H]1C[C@@H](OC(=O)N[C@@H](Cc2ccccc2)[C@H](O)CN(CC(C)C)S(=O)(=O)c2ccc(N)cc2)CN1 | 13 |
| COc1cccc(NC(=O)[C@@H]2C[C@@H](OC(=O)N[C@@H](Cc3ccccc3)[C@H](O)CN(CC(C)C)S(=O)(=O)c3ccc(N)cc3)CN2)c1 | 15.2 |
| COc1ccc(OC)c(NC(=O)[C@@H]2C[C@@H](OC(=O)N[C@@H](Cc3ccccc3)[C@H](O)CN(CC(C)C)S(=O)(=O)c3ccc(N)cc3)CN2)c1 | 11.8 |
| COc1cc(NC(=O)[C@@H]2C[C@@H](OC(=O)N[C@@H](Cc3ccccc3)[C@H](O)CN(CC(C)C)S(=O)(=O)c3ccc(N)cc3)CN2)cc(OC)c1OC | 10.1 |
| CC(C)(C)NC(=O)[C@@H]1CN(Cc2cccnc2)CCN1C[C@@H](O)C[C@@H](Cc1ccccc1)C(=O)N[C@H]1c2ccccc2C[C@H]1O | < 0.01 |
